Where two headings read alike, the source gives them in different places. Bridge positions count the residues as written; N and C are the ends. Peptide text beside a SMILES is read from it.
Tests used:
PS:C4BP complex [1] = target: T1, PS:C4BP complex (Homo sapiens, UniProt P04003+P20851); assay: Fluid-phase peptide inhibition of PS binding to b-C4BP, detected on MAb S-7-coated plates; conditions: b-C4BP 0.5 μg/ml, PS 1.0 μg/ml
T1 construct: Purified human C4BP was obtained from 5 liters (l) of human citrated plasma; from tissue; host or cells: human citrated plasma (C4BP); protein S by the method of Schwarz et al
T1 sequence (P04003 49-597): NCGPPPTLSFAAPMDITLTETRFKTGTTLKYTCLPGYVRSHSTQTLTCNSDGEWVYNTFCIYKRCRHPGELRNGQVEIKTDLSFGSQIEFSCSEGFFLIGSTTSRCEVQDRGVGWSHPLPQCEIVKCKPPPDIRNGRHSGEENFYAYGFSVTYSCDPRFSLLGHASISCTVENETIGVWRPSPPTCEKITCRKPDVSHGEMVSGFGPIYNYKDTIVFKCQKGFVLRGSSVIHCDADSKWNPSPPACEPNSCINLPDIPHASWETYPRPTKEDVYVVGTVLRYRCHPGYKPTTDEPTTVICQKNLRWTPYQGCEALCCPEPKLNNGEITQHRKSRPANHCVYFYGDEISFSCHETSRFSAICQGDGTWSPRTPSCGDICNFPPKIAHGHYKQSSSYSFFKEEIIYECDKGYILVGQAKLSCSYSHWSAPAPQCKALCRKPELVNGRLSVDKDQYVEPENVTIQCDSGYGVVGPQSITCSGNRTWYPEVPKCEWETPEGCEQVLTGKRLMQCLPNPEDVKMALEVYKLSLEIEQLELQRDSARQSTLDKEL
T1 sequence (P20851 18-252): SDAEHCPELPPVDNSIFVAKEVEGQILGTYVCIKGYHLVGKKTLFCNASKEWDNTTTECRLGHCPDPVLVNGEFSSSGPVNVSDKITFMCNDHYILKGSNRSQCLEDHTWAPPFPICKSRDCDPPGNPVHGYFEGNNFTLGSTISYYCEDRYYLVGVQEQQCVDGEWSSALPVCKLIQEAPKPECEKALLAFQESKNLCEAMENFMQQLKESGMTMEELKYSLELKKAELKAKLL
Procedure: (§1) An alternative approach was used to test the ability of the peptides, PSP-loop, PSP-424K and PSP-428K, in comparison with that seen with the PSP-12 peptide, in inhibiting the binding of PS to C4BP, the result of which was detected on monoclonal antibody-coated plates. For this assay, biotinylated-C4BP (b-C4BP), PS and PSP peptides were admixed together at the respective concentrations of 0.5 μg/ml, 1.0 μg/ml and at a range of 0-500 μM (V:V:V). The admixtures were maintained for 2 hours at room temperature on a fluid phase plate to allow the binding and/or inhibition thereof of PS to C4BP by the PS-derived peptides. After the maintenance period, 50 μl of the admixture were separately admixed to wells previously coated with 10 μg/ml of MAb S-7 (ATCC No. HB 80819). The admixtures were maintained for 1 hour at room temperature to allow for the binding of C4BP to MAb S-7-antibody-coated plates. The binding of biotinylated complexes to the antibody-coated plates was detected as described in Example 5Aii.

PS:C4BP complex [2] = target: T1, PS:C4BP complex; assay: Peptide inhibition of b-C4BP binding to PS-coated wells; conditions: b-C4BP 1 μg/ml, peptide 0-500 μM
Procedure: An alternative approach was used to test the ability of the peptides, PSP-loop, PSP-424K and PSP-428K, in comparison with that seen with the PSP-12 peptide, in inhibiting the binding of C4BP to PS. For this assay, the microtiter wells were coated with purified PS diluted to a concentration of 10 μg/ml in carbonate-coating buffer as described above. The wells were maintained to allow the PS to bind to the well walls. After the maintenance period, the wells were blocked also as described above. The selected PSP peptides were separately admixed at various concentrations ranging from 0-500 μM with biotinylated-C4BP (b-C4BP) at a concentration of 1 μg/ml. The admixtures were maintained on a fluid phase plate for 2 hours at room temperature to form peptide-C4BP complexes.
Fifty μl of the complexed admixtures were separately admixed to the prepared […] and maintained for 1 hour at room temperature. Thereafter, the plate was washed and processed for developing as described above.

PS:C4BP complex [3] = target: T1, PS:C4BP complex; assay: Fluid-phase peptide inhibition of b-PS binding to C4BP, detected on anti-C4BP polyclonal antibody-coated plates
Procedure: as §1, with “polyclonal” for “monoclonal”, “C4BP, biotinylated-PS (b-PS)” for “biotinylated-C4BP (b-C4BP), PS”, “3” for “0.5”, “0.6” for “1.0”, “anti-C4BP IgG polyclonal antibody.” for “MAb S-7 (ATCC No. HB 80819).”, “C4BP-antibody-coated” for “MAb S-7-antibody-coated”

[4] = target: T2, interaction of protein S with C4BP (Homo sapiens, UniProt P04003+P20851); conditions: in vitro; Walker et al., Weinstein et al.; cited from earlier work
T2 sequence (P04003 49-597): T1 sequence (P04003 49-597)
T2 sequence (P20851 18-252): T1 sequence (P20851 18-252)

PS:C4BP complex [5] = target: T1, PS:C4BP complex; assay: Peptide Inhibition Assay: b-PS binding to C4BP in solid-phase
Procedure: Each of the peptides produced as described in Example 1 and listed in Table 1 was analyzed for its ability to inhibit the binding of native protein S in liquid-phase to C4BP in solid-phase.
Microtiter wells of a 96 well plate were coated with 50 μl of 10 μg/ml purified C4BP in carbonate buffer (0.02M Na2 CO3, pH 9.0, 0.02% Na-Azide). After blocking with 10% BSA in TBS, 50 μl of different concentrations of peptides diluted in washing buffer (TBS, 0.2% BSA, 5mM CaCl, 0.02% Tween 20) were separately admixed to C4BP-coated wells. After 2 hours at room temperature, 50 μl of a solution of biotinylated protein S, were admixed to each well to form a second binding admixture having a final concentration of 2 μg/ml. The plate was agitated and the samples Were incubated 1 hour at room temperature. The samples were discarded and the wells were washed 3 times with washing buffer. […] The resulting optical densities of the reaction solutions were read as described before in Example 2C. […]
where I is expressed as a percent; and where 100%=delta/min of the amount of b-PS which specifically bound to C4BP-coated wells in the absence of any competing PS-peptide; and where deltaT =the change in absorbance (405 nm) in the presence of competing PS-peptide; and where deltaC =the change in absorbance (405 nm) in the absence of competing PS-peptide.

C4BP = target: T3, C4BP (Homo sapiens, UniProt P04003+P20851); conditions: read-out: dissociation constant (Kd) for the protein S - C4BP interaction, cited from earlier work
T3 sequence (P04003 49-597): T1 sequence (P04003 49-597)
T3 sequence (P20851 18-252): T1 sequence (P20851 18-252)

With CC[C@H](C)[C@H](NC(=O)CNC(=O)[C@@H](N)CO)C(=O)N[C@@H](CCCCN)C(=O)N[C@@H](CCCCN)C(=O)N[C@H](C(=O)N[C@H](C(=O)N[C@@H](CCC(N)=O)C(=O)N[C@@H](CCC(=O)O)C(=O)N[C@@H](CCCCN)C(=O)N[C@@H](CCC(N)=O)C(=O)N[C@@H](CC(N)=O)C(=O)N[C@@H](CCCCN)C(=O)N[C@@H](CS)C(N)=O)[C@@H](C)CC)[C@@H](C)CC [PSP-424K, SGIKKIIQEKQNKC] (H-SGIKKIIQEKQNKC-NH2; N-terminus assumed) the IC90 (PS:C4BP complex [1]) was ~250 µM, the IC90 (PS:C4BP complex [2]) was ~250 µM and the “inhibition of binding of b-PS to C4BP compared with PSP-loop” value (PS:C4BP complex [3]) was “inhibitory but with lower effectiveness”.
For CC[C@H](C)[C@H](NC(=O)[C@H](C)NC(=O)[C@H](CCC(=O)O)NC(=O)[C@H](CC(=O)O)NC(=O)[C@H](CC(C)C)NC(=O)[C@H](CC(=O)O)NC(=O)[C@H](CC(C)C)NC(=O)[C@H](CCC(N)=O)NC(=O)[C@@H](NC(=O)CN)C(C)C)C(N)=O [PSP-605, GVQLDLDEAI] (H-GVQLDLDEAI-NH2; N-terminus assumed), the “inhibition of the interaction of protein S with C4BP” value [4] is listed as “inhibits the interaction of protein S with C4BP in vitro”.
In the case of CC[C@H](C)[C@@H]1NC(=O)[C@H](CO)NC(=O)[C@H](C)NC(=O)CNC(=O)[C@H](CCC(N)=O)NC(=O)[C@H](CCCCN)NC(=O)[C@H](CCSC)NC(=O)[C@H](CC(C)C)NC(=O)[C@H](CC(N)=O)NC(=O)[C@H](Cc2c[nH]c3ccccc23)NC(=O)[C@H](CO)NC(=O)[C@H](CCCNC(=N)N)NC(=O)[C@H]([C@@H](C)CC)NC(=O)[C@@H](N)CSSC[C@@H](C(N)=O)NC(=O)[C@H](Cc2c[nH]cn2)NC(=O)[C@H](CCCCN)NC(=O)[C@H](CC(N)=O)NC(=O)[C@H](CCC(N)=O)NC(=O)[C@H](CCCCN)NC(=O)[C@H](CCC(=O)O)NC(=O)[C@H](CCC(N)=O)NC(=O)[C@H]([C@@H](C)CC)NC(=O)[C@H]([C@@H](C)CC)NC(=O)[C@H](CCC(=O)O)NC(=O)[C@H](CCCCN)NC1=O [PSP-loop] (H-CIRSWNLMKQGASIKEIIQEKQNKHC-NH2; disulfide 1-26 (inferred); N-terminus and C-terminus assumed), the IC50 (PS:C4BP complex [3]; C4BP 3 μg/ml, b-PS 0.6 μg/ml) is reported as ~40 µM and the “peptide concentration that completely inhibits the binding of PS to C4BP” value (PS:C4BP complex [5]; subsequent experiments) is reported as “approximately 250 μM”.
For CPEGYRYNLKSKSC [PSP-7], the “inhibition of PS:C4BP complex formation relative to PS-peptides from other regions of protein S” value (PS:C4BP complex [5]) was “strong inhibition”.
For “Protein S: vitamin K-dependent single chain plasma glycoprotein of 75,000 daltons, cofactor to activated protein C”, the Kd (C4BP; in the presence of Ca++) is listed as 0.0006 µM and the Kd (C4BP; in the presence of EDTA) is listed as 0.001 µM.

Reference: patent publication US5321123A, “Protein S polypeptides and anti-peptide antibodies that inhibit protein S binding to C4B binding protein, diagnostic systems and therapeutic methods” (The Scripps Research Institute, priority 1992, dated 1994)
